The nature of data set [1]: Gravimetric Vapor Sorption (GVS). Particulars: for Overall moisture uptake: 0% to 90% RH (Form I: % w/w, whole studied RH range up to 90% RH); for Moisture uptake / gradual Wt increase: from 0% to 50% RH; for Hygroscopicity class by GVS: weight increase at 80% RH; for Largest Wt increase: from 70 to 90% RH. It is filed as physicochemical. As for the experimental part: 1.7.6 Gravimetric Vapor Sorption (GVS)
Approximately 20 mg of sample was placed into a wire-mesh vapor sorption balance pan and loaded into an ‘IgaSorp’ vapor sorption balance (Hiden Analytical Instruments). The sample was then dried by maintaining a 0% humidity environment until no further weight change was recorded. Subsequently, the sample was subjected to a ramping profile from 0-90% RH at 10% RH increments, maintaining the sample at each step until equilibration had been attained (99.5% step completion). Upon reaching equilibration, the % RH within the apparatus was ramped to the next step and the equilibration procedure repeated. After completion of the sorption cycle, the sample was dried using the profile from 85-5% RH at 10% RH increments same procedure. At last, the sample was dried by maintaining a 0% humidity environment until no further weight change was recorded. The weight change during the sorption/desorption cycles were then monitored, allowing the hygroscopic nature of the sample to be determined.

Data set [2] is described as follows: Stability studies at 40° C./75% RH (open vial). The following applies: 1 week (7 days), checked by XRPD, Raman. It is filed as physicochemical. The procedure:
The polymorphs identified were stored at 40° C./75% RH (open vial). Each sample was put in a glass vial un-capped. Analysis was carried out at 7 days by XRPD and Raman for any potential change in crystalline structure.

How the values of data set [3] were obtained: The solubility of the starting compound was determined in 25 pharmaceutically acceptable solvents (class II and III) of differing polarity. The procedure was as follows:
Approximately 20 mg of material was weighed out into each glass vial.
The mixture was stirred at RT for 5-10 minutes. Visual checks were then made for solubility.
If no solubility was achieved then steps (ii) and (iii) were repeated until either the solubility was achieved or the 50 volume aliquots of that solvent were added.
Solubility was then approximated.
Solubility was finally checked at the elevated temperature (40° C.).

“Also recorded” adds a separate entry of the source.

As for `Cc1ccccc1-c1cc(N2CC[N+](C)(COP(=O)(O)O)CC2)ncc1N(C)C(=O)C(C)(C)c1cc(C(F)(F)F)cc(C(F)(F)F)c1.Cl.[Cl-]` [Form I, 4-(5-(2-(3,5-bis(trifluoromethyl)phenyl)-N,2-dimethylpropanamido)-4-(o-tolyl)pyridin-2-yl)-1-methyl-1-((phosphonooxy)methyl)piperazin-1-ium], in data set [1], the Overall moisture uptake entry is given as “about 45%”, the “Moisture uptake / gradual Wt increase” value is listed as “about 5%” and the “Hygroscopicity class by GVS” value is listed as “very hygroscopic (>15%@80% RH)”. For the same molecule, the “Form change detected by GVS” value in data set [1] (sorption/desorption cycle 0-90% RH) is on record as “No form changes were detected”. Besides, the “Generated form (change in crystalline structure)” value in data set [2] is on record as “changes in crystalline structures; also recorded: changed”. In addition, the “Solubility (in words)” value in data set [3] is given as “very poor solubility”.

In the case of `Cc1ccccc1-c1cc(N2CC[N+](C)(COP(=O)(O)O)CC2)ncc1N(C)C(=O)C(C)(C)c1cc(C(F)(F)F)cc(C(F)(F)F)c1.Cl.[Cl-]` [Form III, 4-(5-(2-(3,5-bis(trifluoromethyl)phenyl)-N,2-dimethylpropanamido)-4-(o-tolyl)pyridin-2-yl)-1-methyl-1-((phosphonooxy)methyl)piperazin-1-ium], in data set [1], the Overall moisture uptake entry is recorded as “circa 25%”, the “Moisture uptake / gradual Wt increase” value was “circa 5.19%”, the “Largest Wt increase” value was “circa 8.63 % w/w” and the “Hygroscopicity class by GVS” value is “very hygroscopic (>15%@80% RH)”. In addition, in data set [1] (at 80% RH), the “Loss of weight in absorption process” value is roughly 5.82 % w/w. For the same molecule, in data set [2], the “Generated form (change in crystalline structure)” value was “changes in crystalline structures; also recorded: changed”.

Regarding `Cc1ccccc1-c1cc(N2CC[N+](C)(COP(=O)(O)O)CC2)ncc1N(C)C(=O)C(C)(C)c1cc(C(F)(F)F)cc(C(F)(F)F)c1.Cl.[Cl-]` [Form II, 4-(5-(2-(3,5-bis(trifluoromethyl)phenyl)-N,2-dimethylpropanamido)-4-(o-tolyl)pyridin-2-yl)-1-methyl-1-((phosphonooxy)methyl)piperazin-1-ium], in data set [1], the Overall moisture uptake entry is listed as “circa 12.75%”, the “Largest Wt increase” value is “circa 8.63 % w/w” and the “Hygroscopicity class by GVS” value is on record as “hygroscopic (15%>Wt increase>2%%@80% RH)”. Further, in data set [1] (@10% RH), the “Sharp Wt increase in absorption” value is given as “circa 2.92 % w/w”. In addition, the “Loss of weight in the absorption process” value in data set [1] (at 60% RH) is listed as roughly 0.2 % w/w. Besides, the Moisture uptake result in data set [1] (from 0 to 70% RH) is reported as “circa 4.12%”. Further, in data set [1] (from 20 to 70% RH), the “Gradual Wt increases, total” value is recorded as “circa 1.2 % w/w”. Besides, the “Generated form (change in crystalline structure)” value in data set [2] is “not and No change”.

(Values after patent US10005803B2, “Crystalline forms of fosnetupitant” (Helsinn Healthcare SA, priority 2015, dated 2018).)
